According to patent US20160264616A1, “THERAPEUTIC COMPOUNDS AND METHODS” (priority 2015, published 2016):

Test system: RGS17ΔN:Gαo interaction in HEK293T cells
Test: RGS localization assay, GFP-RGS17ΔN co-transfected with hGαo in HEK293T cells
Type: cell-based, human
Conditions: for delocalization of RGS17ΔN from the membrane: 100 μM compound
Method: HEK293T cells co-transfected with GFP-RGS17FL and human Gαo were treated with UI-5, UI-1590 and […] to determine if the compounds could disrupt the RGS17:Gαo interaction that could drive RGS17 to the membrane. […] To test this hypothesis, we constructed a GFP-RGS17 fusion protein with an N-terminal truncation, removing the cysteine-rich motif. […] As a negative control, we tested a known RGS4 inhibitor (CCG-50014) in this assay against RGS17ΔN (21). […] Finally, to ensure the localization was not due to the GFP tag, pAcGFP vector was co-transfected into HEK293T cells with hGαo. […] Cross-sectional fluorescence intensity analysis was used to quantify the intensity of signal at a cross section of the cell. Average signal at the membrane and in the cytoplasm were calculated and change in signal intensity was assessed between time zero and time final. […] Additionally, the control condition of CCG-50014 was subject to the same analyses as the lead compound.
Twenty four (24) hours prior to plating, assay plates were coated with 30 μl poly-D-lysine per well. Human Embryonic Kidney 293T cells (HEK293T) were plated in to 96 well tissue culture treated glass bottom view plates (Perkin Elmer, Part No. 6005430) at a density of 25K cells per well. 24 hours post seeding, cells were transfected with hGαo in pCDNA 3.1(+), pAcGFPRGS17 FL, pAcGFP RGS17ΔN, empty pAcGFP, hGαo+pAcGFPRGS17 FL, hGαo+pAcGFP RGS17ΔN, or hGαo+empty pAcGFP vector using Lipofectamine 2000 (Life Technologies) as the transfection reagent and according to manufacture protocols. 24 hours post transfection, cell media was removed and replaced with […] serum free, phenol red free DMEM (Life Technologies, Ref No. 31053-028). Cells were then imaged using a Zeiss LSM510 confocal microscope (University of Iowa Central Microscopy Core). Images were analyzed using NIH Image J software and Graphpad Prism 6.
Compounds at 2× final desired concentrations were diluted in serum free, phenol red free DMEM.

Structure (SMILES): Cc1ccc(-n2sc(=O)n(Cc3ccc(F)cc3)c2=O)cc1 [CCG-50014, reference compound]
- delocalization of RGS17ΔN from the membrane: No delocalization was observed
- delocalization of RGS17ΔN from the membrane (listed as 50014): did not result in RGS17ΔN delocalization
- change of membrane and cytosolic fluorescence signal (Image J cross-section) (time zero versus time final): no significant change of signal
